Common to all, as to type: cell-based
Assay [1] has as its target T1, PAR4 (Homo sapiens, UniProt Q96RI0).
T1 construct: expressed in transfected cells; host or cells: HEK293 PAR4 Clone 1.2A
T1 sequence (Q96RI0 18-385): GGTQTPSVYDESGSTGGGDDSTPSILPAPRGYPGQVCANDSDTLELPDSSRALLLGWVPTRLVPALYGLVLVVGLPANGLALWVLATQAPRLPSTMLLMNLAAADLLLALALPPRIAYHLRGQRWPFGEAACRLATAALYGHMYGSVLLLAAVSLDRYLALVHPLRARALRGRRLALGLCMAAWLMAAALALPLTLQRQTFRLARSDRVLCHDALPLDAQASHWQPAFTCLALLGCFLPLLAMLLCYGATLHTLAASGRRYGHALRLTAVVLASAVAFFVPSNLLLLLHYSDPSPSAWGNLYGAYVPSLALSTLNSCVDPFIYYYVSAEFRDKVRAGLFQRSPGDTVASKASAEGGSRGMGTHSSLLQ
Description: PAR4 FLIPR assay (calcium mobilization, antagonist activity) in PAR4-expressing HEK293 cells. From the text: The FLIPR assay is an exemplary in vitro assay for measuring the activity of the PAR4 antagonists of the present invention. In this assay, intracellular calcium mobilization is induced in PAR4 expressing cells by a PAR4 agonist and calcium mobilization is monitored.
HEK293 cells stably expressing PAR4 were generated by a standard method of transfection of human PAR4 (F2R23) cDNA expression vector and selected based on PAR4 protein expression or mRNA expression. […] These cells also express endogenous PAR1 and can elicit calcium signal upon stimulation with PAR1 agonist peptide. Therefore, the same cells were also used to determine selectivity against PAR1 and agonist activity for both receptors. Cells from HEK293 PAR4 Clone 1.2A (BMS Arctic ID 383940) were propagated and used for calcium mobilization studies.
FLIPR-based calcium mobilization assay in HEK293 cells was used to measure PAR4 antagonism, agonism, and selectivity against PAR1. The activity of the PAR4 antagonists of the present invention were tested in PAR4 expressing cells by monitoring H-Ala-Phe(4-F)-[…]NH2-induced intracellular calcium mobilization. Counter screens for agonist activity and PAR1 antagonist activity were also performed. Briefly, PAR1/PAR4-expressing HEK293 cells were grown in DMEM (Life Technology, Grand Island, N.Y.) containing 10% heat-inactivated FBS, 1% Penicillin-Streptomycin, 10 μg/mL blasticidin, and 100 μg/mL Zeocin at 37° C. with 5% CO2. Cells were plated overnight prior to the experiment in a black 384-well Purecoat Amine clear bottom plate (Becton Dickinson Biosciences, San Jose, Calif.) at 10,000 cells/well in 30 μL growth medium and incubated in a humidified chamber at 37° C. with 5% CO2 overnight. Prior to compound addition, the cell medium was replaced with 40 μL of IX calcium and magnesium-containing Hank's Balanced Saline Solution (HBSS) (with 20 mM HEPES) and 1:1000 diluted fluorescent calcium indicator (Codex Biosolutions, Gaithersburg, Md.). After a 30 minute incubation period at 37° C., and a further 30 minute incubation and equilibration period at room temperature, 20 μL test compound (diluted in 1×HBSS buffer) was added at various concentrations at 0.17% dimethyl sulfoxide (DMSO) final concentration. Changes in fluorescence intensity were measured using a Functional Drug Screening System (FDSS, Hamamatsu, Japan) to determine agonist activities. The cells were then incubated for 30 minutes at room temperature followed by addition of 20 μL of agonist peptide for antagonist activity measurement. […] Compound potency was derived from 11-point concentration-response curves.
Background: Calcium assays in cells follow changes in intracellular calcium, usually with a dye or a luminescent sensor.

Assay [2] concerns Caski (HPV16+) cells. Description: Cell proliferation/viability assay, Caski cells. The conditions noted are these: Homo sapiens, Ca-Ski, 96 h, 4 days. The method, then:
(§1) Caski (catalog number CRL-1550), SiHa (catalog number HTB-35), C33A (catalog number HTB-31), Saos-2 (ATCC HTB-85), and Hela (catalog number CCL-2) cells were obtained from the American Type Culture Collection (ATCC). The human cervical carcinoma cell lines Caski. SiHa, Hela and C33A, and the human osteosarcoma cell line Saos-2, and the human keratinocyte cell line HaCaT were cultured in Dulbecco's Modified Eagle Medium (DMEM, Invitrogen catalog number 11965-092) supplemented with 10% fetal bovine serum. The colorectal carcinoma cell line HCT-116 was cultured in Roswell Park Memorial Institute-1640 Medium (Invitrogen catalog number 11875-093) supplemented with 10% FBS. All cells were incubated at 37° C. in a humidified atmosphere with 5% CO2 in air. To establish the SCHPV-18 cell line, one million primary neonatal human foreskin keratinocytes (Invitrogen, catalog no. C-001-5C), cultured in KBM Gold-keratinocvte cell basal medium (Lonza, catalog no. 192060), were electroporated with 5 μg HPV-18 plasmid DNA (ATCC catalog no. 45152D) using the Amaxa Nucleofector II on setting T-007. Cells were co-transfected with 2 μg plasmid pZSGreen1-N1 (Clontech catalog no. 632448) encoding G418 resistance, and cells were selected for four days in 100 μg/ml G418, after which selection was removed. Cells were maintained in culture six months prior to compound testing. Integration of the HPV 18 genome was confirmed by Southern blot. Control cells transfected in parallel with pZSGreen1-N1 alone became senescent four days after selection and the culture could not be expanded. SCHPV-18 cells were maintained in E medium (Fehrmann F, Laimins L A. Human papillomavirus type 31 life cycle: methods for study using tissue culture models. Methods Mol Biol 2005; 292:317-330).
(§2) For proliferation assays, cells were plated in white polystyrene 96-well plates (Costar catalog number 3917) for CellTiter Glo viability assays or 96-well special optics plates (Costar cat #3614) for CellTiter Blue viability assays. Cells were plated in the appropriate growth medium without antibiotics. Two hours after cell plating, a 200× compound stock diluted in DMSO was added to a final concentration of 0.5%. Plates were incubated at 37° C., for 4 days and then cell viability was assessed using either CellTiter Blue (Promega catalog number G8081) or CellTiter Glo (Promega catalog number G7572) according to the manufacturer's instructions. For the CellTiter Blue viability assay, data was collected using the SpectraMax Gemini EM (Molecular Devices) with an excitation wavelength of 530 nm and emission wavelength of 590 nm. For the CellTiter Glo viability assay, data was collected using the Envision Mulitlabel Reader (Perkin Elmer catalog number 2104-0010). To calculate IC50 and EC50 values, percent inhibition curves were fit using a four-parameter logistic formula [y=A+[…]], where A and B denote minimal and maximal % inhibition, respectively, C is the IC50 value, D is the Hill slope, and x represents compound concentration.
(§3) Table C, below, sets out the results obtained employing various compounds of the invention tested for their effects on proliferation of such cells. Caski or SiHa cells, transformed by HPV 16, Hela cells, transformed by HPV 18, or HPV-negative control cell lines (Saos-2 or C33a) were treated with various compounds. […] Unlike the HPV-negative Saos-2 or C33a cell lines, the HPV-transformed cell lines rely on the presence of HPV for their continued proliferation. Therefore, a comparison of IC50 values from HPV-transformed cell lines with IC50 values obtained from HPV-negative cell lines can be used to test for compound selectivity.

Assay [3] relates to HeLa (HPV18+) cells. Description: Cell proliferation/viability assay, HeLa cells. To be noted: Homo sapiens, 96 h, 4 days. The method, then: as §1, §2, §3
For assay [4], the system named is SiHa (HPV16+) cells. The experiment in a line: Cell proliferation/viability assay, SiHa cells. To be noted: Homo sapiens, 96 h, 4 days. The method, then:
as §1, §2, §3

In assay [5] the test system is Saos-2 (HPV−) cells. Description: Cell proliferation/viability assay, Saos-2 cells. The conditions noted are these: Homo sapiens, SAOS-2, 96 h, read-out: Saos-2 (HPV−) Proliferation IC50 (μM). The method, then:
as §1, §2, §3

For assay [6], the system named is C33A (HPV−) cells. Description: Cell proliferation/viability assay, C33A cells. The conditions noted are these: Homo sapiens, C-33-A, 96 h, read-out: C33A (HPV−) Proliferation IC50 (μM). The method, then:
as §1, §2, §3

Where only a bound is given, the exact number is not on record here.

In the case of `COc1ccc(-c2cc(C#N)cc3nc(OC(F)F)cnc23)cc1` [Example 1, 3-(difluoromethoxy)-8-(4-methoxyphenyl)quinoxaline-6-carbonitrile], the IC50 in assay [1] came out at 1.9 µM; in assay [2], 2.3 µM; in assay [3], 1.5 µM; in assay [4] it was 1.7 µM; in assay [5], 7.7 µM; in assay [6] it was 6.9 µM.

With `COc1ccc(-c2cc(Cl)cc3nc(OC(F)F)cnc23)cc1` [Example 2, 7-Chloro-2-(difluoromethoxy)-5-(4-methoxyphenyl)quinoxaline], the IC50 in assay [1] is 2.1 µM; in assay [2], 10 µM; in assay [3] it was 9.3 µM; in assay [4], 8 µM; in assay [5], greater than 100 µM; in assay [6] it was 54 µM.

With `C=Cc1cc(-c2ccc(OC)cc2)c2ncc(OC(F)F)nc2c1` [Example 3, 2-(difluoromethoxy)-5-(4-methoxyphenyl)-7-vinylquinoxaline], the IC50 in assay [1] was 0.69 µM; in assay [2] it was 61.9 µM; in assay [5] it was greater than 100 µM; in assay [6], greater than 100 µM.

As to `COC(=O)c1cc(-c2ccc(OC)cc2)c2ncc(OC(F)F)nc2c1` [Example 4, Methyl 3-(difluoromethoxy)-8-(4-methoxyphenyl)quinoxaline-6-carboxylate], the IC50 in assay [1] was 1 µM; in assay [2] it was 12.6 µM; in assay [5] it was greater than 100 µM; in assay [6] it was 53.4 µM.

For the compound `C#Cc1cc(-c2ccc(OC)cc2)c2ncc(OC(F)F)nc2c1` [Example 5, 2-(difluoromethoxy)-7-ethynyl-5-(4-methoxyphenyl)quinoxaline], the IC50 stood at 0.25 µM in assay [1]; 3.4 µM in assay [2]; 3.3 µM in assay [3]; 4.5 µM in assay [4]; 53.1 µM in assay [5]; 42.3 µM in assay [6].

For `COc1ccc(-c2cc(C(F)(F)F)cc3nc(OC(F)F)cnc23)cc1` [Example 8, 2-(difluoromethoxy)-5-(4-methoxyphenyl)-7-(trifluoromethyl)quinoxaline], the IC50 was 1.5 µM in assay [1]; 2.5 µM in assay [2]; 2.3 µM in assay [3]; 4.3 µM in assay [4]; 58.3 µM in assay [5]; greater than 99.5 µM in assay [6].

Consider `Cc1cc(-c2cccc(Cl)c2)c2ncc(OC(F)F)nc2c1` [Example 18, 5-(3-chlorophenyl)-2-(difluoromethoxy)-7-methylquinoxaline], for which the IC50 in assay [1] is 1.4 µM; in assay [2] it was 13.9 µM; in assay [3] it was 13.2 µM; in assay [4] it was 11.6 µM; in assay [5], greater than 100 µM; in assay [6], greater than 100 µM.

Turning to `Cc1cc(-c2ccc(C(F)(F)F)cc2)c2ncc(OC(F)F)nc2c1` [Example 19], the IC50 in assay [1] is 0.8 µM; in assay [2] it was 14.6 µM; in assay [3], 29.9 µM; in assay [4] it was 20.5 µM; in assay [5], greater than 100 µM; in assay [6], greater than 100 µM.

For the compound `Cc1cc(-c2ccc(OC(F)(F)F)cc2)c2ncc(OC(F)F)nc2c1` [Example 20, 2-(difluoromethoxy)-7-methyl-5-(4-(trifluoromethoxy)phenyl)quinoxaline], the IC50 in assay [1] was 1.2 µM; in assay [2], 16.4 µM; in assay [3] it was 45.1 µM; in assay [4], 22.1 µM; in assay [5], greater than 100 µM; in assay [6], 83.5 µM.

`COc1cc(F)cc(-c2cc(C)cc3nc(OC(F)F)cnc23)c1` [Example 21, 2-(difluoromethoxy)-5-(3-fluoro-5-methoxyphenyl)-7-methylquinoxaline]: the IC50 in assay [1] was 2.2 µM; in assay [2], 13.3 µM; in assay [3], 14.7 µM; in assay [4] it was 11.7 µM; in assay [5], greater than 100 µM; in assay [6], greater than 100 µM.

Take `Cc1cc(-c2ccc(F)c(F)c2)c2ncc(OC(F)F)nc2c1` [Example 22, 2-(difluoromethoxy)-5-(3,4-difluorophenyl)-7-methylquinoxaline]: the IC50 turned out to be 1 µM in assay [1]; 15.9 µM in assay [2]; 16.9 µM in assay [3]; 12.6 µM in assay [4]; 70.6 µM in assay [5]; 94.4 µM in assay [6].

With `Cc1cc(-c2ccc(Cl)cc2Cl)c2ncc(OC(F)F)nc2c1` [Example 23, 5-(2,4-dichlorophenyl)-2-(difluoromethoxy)-7-methylquinoxaline], the IC50 was 0.012 µM in assay [1]; 12.9 µM in assay [2]; 10.9 µM in assay [3]; 9.3 µM in assay [4]; greater than 100 µM in assay [5]; 79.7 µM in assay [6].

In the case of `COc1ccc(-c2cc(Br)cc3nc(OC(F)F)cnc23)cc1` [Example 27, 7-bromo-2-(difluoromethoxy)-5-(4-methoxyphenyl)quinoxaline], the IC50 in assay [1] was found to be 2.6 µM.
